Measured values as given in ChEMBL document CHEMBL4414573, “Competitive Binding Assay with an Umbelliferone-Based Fluorescent Rexinoid for Retinoid X Receptor Ligand Screening” (J Med Chem, 2019).

Biological target: T1, Retinoic acid receptor RXR-alpha (Homo sapiens, UniProt P19793)
T1 sequence (P19793 whole entry): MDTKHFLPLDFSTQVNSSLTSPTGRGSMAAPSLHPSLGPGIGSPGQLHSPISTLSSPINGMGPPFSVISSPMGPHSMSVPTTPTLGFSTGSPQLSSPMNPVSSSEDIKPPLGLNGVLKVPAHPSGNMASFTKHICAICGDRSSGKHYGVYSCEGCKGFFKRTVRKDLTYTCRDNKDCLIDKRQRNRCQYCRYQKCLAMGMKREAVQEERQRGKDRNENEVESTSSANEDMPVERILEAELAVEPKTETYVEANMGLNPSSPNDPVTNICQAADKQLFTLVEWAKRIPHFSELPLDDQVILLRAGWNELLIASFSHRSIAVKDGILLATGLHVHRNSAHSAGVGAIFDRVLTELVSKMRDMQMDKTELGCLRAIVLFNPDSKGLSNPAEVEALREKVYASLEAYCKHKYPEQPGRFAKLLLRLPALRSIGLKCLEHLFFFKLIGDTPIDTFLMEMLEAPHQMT
Assay: Displacement of CU-6PMN from human RXRalpha LBD incubated for 2 hrs by fluorescence based assay; call rule not given here

| SMILES | Ki | Ki (read-out: Ki) [µM] |
| --- | --- | --- |
| CCCCCCCCCCCCCCCC(=O)O [PALMITIC ACID] | Not Active |  |
| CC/C=C\C/C=C\C/C=C\C/C=C\C/C=C\CCCC(=O)O [ICOSAPENT] |  | 7.63 |
